Values of other authors, collected in patent publication US9304123B2, “Biomarkers used to detect and monitor neurological autoimmune diseases” (NUtech Ventures, priority 2012, dated 2016).

System: EAE
Details: animal models

CN(C)C(=N)N=C(N)N [Metformin]
effect on EAE progression: attenuate EAE progression
